Reference: patent US6143739A, “Basic proline-amide derivatives of GE 2270 and GE 2270-like antibiotics” (Biosearch Italia S.p.A., priority 1995, dated 2000)

Experiments:
Assay in all cases: MIC by microbroth dilution
Strept. sanguis L1721 = type: cell-based; conditions: 0.01% (w/v) BSA, 10^4 CFU/ml, read after 18-24 h, 37° C., Todd Hewitt broth
Description: (§1) The minimal inhibitory concentration (MIC) has been determined by microbroth dilution methodology, in the presence of 0.01% (w/v) of bovine serum albumin (BSA). BSA is added to the diluent to avoid possible adherence of the compounds of the invention to the plastic surface of the microtiter wells, as disclosed also by B. Goldstein et al., Antimicrobial Agents and Chemotherapy, 37 (1993), 741-745.
(§2) Inocula were 10^4 CFU/ml, except for Propionibacterium acnes and Bacteroides fragilis (10^5 CFU/ml).
(§3) MICs were read after 18-24 h, except for Haemophilus influenzae, P. acnes, B. fragilis (48 h).
(§4) All microorganisms were incubated at 37° C.; H. influenzae in a 5% CO2 atmosphere, anaerobes in a N2 --CO2 --H2 (80:10:10) mixture; other organisms in air.
(§5) The growth media are: Oxoid Iso-Sensitest broth for staphylococci and Enterococcus faecalis); Difco Todd Hewitt broth for streptococci; Difco brain heart infusion broth+1% Difco Supplement C for H. influenzae; Difco Wilkins-Chalgren broth for anaerobes.

[1] = tested on: Streptococcus pyogenes L49; type: cell-based; conditions: 0.01% (w/v) BSA, 10^4 CFU/ml, read after 18-24 h, 37° C., Todd Hewitt broth
Description: as §1, §2, §3, §4, §5

Strept. agalactiae L310 = type: cell-based; conditions: 0.01% (w/v) BSA, 10^4 CFU/ml, read after 18-24 h, 37° C., Todd Hewitt broth
Description: as §1, §2, §3, §4, §5

[2] = tested on: Staphylococcus aureus L165; type: cell-based; conditions: 0.01% (w/v) BSA, 10^4 CFU/ml, read after 18-24 h, 37° C., Iso-Sensitest broth
Description: as §1, §2, §3, §4, §5

Strept. pneumoniae L44 = type: cell-based; conditions: 0.01% (w/v) BSA, 10^4 CFU/ml, read after 18-24 h, 37° C., Todd Hewitt broth
Description: BSA is added to the diluent to avoid possible adherence of the compounds of the invention to the plastic surface of the microtiter wells, as disclosed also by B. Goldstein et al., Antimicrobial Agents and Chemotherapy, 37 (1993), 741-745. Inocula were 10^4 CFU/ml, except for Propionibacterium acnes and Bacteroides fragilis (10^5 CFU/ml). MICs were read after 18-24 h, except for Haemophilus influenzae, P. acnes, B. fragilis (48 h). All microorganisms were incubated at 37° C.; H. influenzae in a 5% CO2 atmosphere, anaerobes in a N2 --CO2 --H2 (80:10:10) mixture; other organisms in air. The growth media are: Oxoid Iso-Sensitest broth for staphylococci and Enterococcus faecalis); Difco Todd Hewitt broth for streptococci; Difco brain heart infusion broth+1% Difco Supplement C for H. influenzae; Difco Wilkins-Chalgren broth for anaerobes.

[3] = tested on: Haemoph. influenzae ATCC 19418 L970; type: cell-based, Haemophilus influenzae; conditions: 0.01% (w/v) BSA, 10^4 CFU/ml, read after 48 h, 37° C., 5% CO2, brain heart infusion broth+1% Supplement C
Description: as §1, §2, §3, §4, §5

| Structure (SMILES) | MIC of the compounds, Strept. sanguis L1721 (Strept. sanguis L1721) [µg/mL] | MIC of the compounds, Streptococcus pyogenes L49 [1] [µg/mL] | MIC of the compounds, Strept. agalactiae L310 (Strept. agalactiae L310) [µg/mL] | MIC of the compounds, Staphylococcus aureus L165 [2] [µg/mL] | MIC of the compounds, Strept. pneumoniae L44 (Strept. pneumoniae L44) [µg/mL] | MIC of the compounds, Haemoph. influenzae ATCC 19418 L970 [3] [µg/mL] |
| --- | --- | --- | --- | --- | --- | --- |
| CNC(=O)CC1NC(=O)c2csc(n2)-c2ccc(-c3nc(C4=NC(C(=O)N5CCCC5C(=O)NCCCN(C)C)CO4)cs3)nc2-c2csc(n2)-c2csc(n2)C(C(O)c2ccccc2)NC(=O)CNC(=O)c2nc(sc2COC)C(C(C)C)NC(=O)c2nc1sc2C (mixture of isomers) [Compound 4] | 0.5 | 4 | 4 | 0.06 | 0.25 | – |
| CNC(=O)CC1NC(=O)c2csc(n2)-c2ccc(-c3nc(C4=NC(C(=O)N5CCCC5C(=O)N(C)CCN(C)C)CO4)cs3)nc2-c2csc(n2)-c2csc(n2)C(C(O)c2ccccc2)NC(=O)CNC(=O)c2nc(sc2COC)C(C(C)C)NC(=O)c2nc1sc2C (mixture of isomers) [Compound 5] | 0.25 | 1 | – | 0.06 | 0.25 | 128 |
| CNC(=O)CC1NC(=O)c2csc(n2)-c2ccc(-c3nc(C4=NC(C(=O)N5CCCC5C(=O)NCCN(C)C)CO4)cs3)nc2-c2csc(n2)-c2csc(n2)C(C(O)c2ccccc2)NC(=O)CNC(=O)c2nc(sc2COC)C(C(C)C)NC(=O)c2nc1sc2C (mixture of isomers) [Compound 7] | 0.5 | 1 | 4 | 0.06 | 0.13 | – |
| CCN(CCN(C)C)C(=O)C1CCCN1C(=O)C1COC(c2csc(-c3ccc4c(n3)-c3csc(n3)-c3csc(n3)C(C(O)c3ccccc3)NC(=O)CNC(=O)c3nc(sc3COC)C(C(C)C)NC(=O)c3nc(sc3C)C(CC(=O)NC)NC(=O)c3csc-4n3)n2)=N1 (mixture of isomers) [Compound 8] | 0.5 | 4 | 8 | 0.06 | 0.25 | – |
| CCN(CC)CCN(CC)C(=O)C1CCCN1C(=O)C1COC(c2csc(-c3ccc4c(n3)-c3csc(n3)-c3csc(n3)C(C(O)c3ccccc3)NC(=O)CNC(=O)c3nc(sc3COC)C(C(C)C)NC(=O)c3nc(sc3C)C(CC(=O)NC)NC(=O)c3csc-4n3)n2)=N1 (mixture of isomers) [Compound 9] | 2 | 8 | 8 | 0.06 | 0.5 | – |
| CNC(=O)CC1NC(=O)c2csc(n2)-c2ccc(-c3nc(C4=NC(C(=O)N5CCCC5C(=O)NCCN(C(C)C)C(C)C)CO4)cs3)nc2-c2csc(n2)-c2csc(n2)C(C(O)c2ccccc2)NC(=O)CNC(=O)c2nc(sc2COC)C(C(C)C)NC(=O)c2nc1sc2C (mixture of isomers) [Compound 11] | 0.5 | 4 | 4 | 0.06 | 0.25 | – |
| CNC(=O)CC1NC(=O)c2csc(n2)-c2ccc(-c3nc(C4=NC(C(=O)N5CCCC5C(=O)N(C)CC(=O)N(C)CCN(C)C)CO4)cs3)nc2-c2csc(n2)-c2csc(n2)C(C(O)c2ccccc2)NC(=O)CNC(=O)c2nc(sc2COC)C(C(C)C)NC(=O)c2nc1sc2C (mixture of isomers) [Compound 13] | 1 | 4 | 8 | 0.13 | 0.5 | – |
| CNC(=O)CC1NC(=O)c2csc(n2)-c2ccc(-c3nc(C4=NC(C(=O)N5CCCC5C(=O)NC(C)C(=O)N(C)CCN(C)C)CO4)cs3)nc2-c2csc(n2)-c2csc(n2)C(C(O)c2ccccc2)NC(=O)CNC(=O)c2nc(sc2COC)C(C(C)C)NC(=O)c2nc1sc2C (mixture of isomers) [Compound 14] | 0.25 | 2 | 4 | 0.13 | 0.13 | – |
| CNC(=O)CC1NC(=O)c2csc(n2)-c2ccc(-c3nc(C4=NC(C(=O)N5CCCC5C(=O)N(C)CCN(C)CCN(C)C)CO4)cs3)nc2-c2csc(n2)-c2csc(n2)C(C(O)c2ccccc2)NC(=O)CNC(=O)c2nc(sc2COC)C(C(C)C)NC(=O)c2nc1sc2C (mixture of isomers) [Compound 15] | 2 | 8 | 16 | 0.06 | 1 | – |
| CNC(=O)CC1NC(=O)c2csc(n2)-c2ccc(-c3nc(C4=NC(C(=O)N5CCCC5C(=O)N5CCN(CCCN(C)C)CC5)CO4)cs3)nc2-c2csc(n2)-c2csc(n2)C(C(O)c2ccccc2)NC(=O)CNC(=O)c2nc(sc2COC)C(C(C)C)NC(=O)c2nc1sc2C (mixture of isomers) [Compound 16] | 1 | 4 | 8 | 0.13 | 0.5 | – |
| CNC(=O)CC1NC(=O)c2csc(n2)-c2ccc(-c3nc(C4=NC(C(=O)N5CCCC5C(=O)N(C)CCN5CCN(C)CC5)CO4)cs3)nc2-c2csc(n2)-c2csc(n2)C(C(O)c2ccccc2)NC(=O)CNC(=O)c2nc(sc2COC)C(C(C)C)NC(=O)c2nc1sc2C (mixture of isomers) [Compound 17] | 0.5 | 4 | 8 | 0.06 | 0.5 | – |
| CNC(=O)CC1NC(=O)c2csc(n2)-c2ccc(-c3nc(C4=NC(C(=O)N5CCCC5C(=O)N(C)CCN5CCN(CCO)CC5)CO4)cs3)nc2-c2csc(n2)-c2csc(n2)C(C(O)c2ccccc2)NC(=O)CNC(=O)c2nc(sc2COC)C(C(C)C)NC(=O)c2nc1sc2C (mixture of isomers) [Compound 18] | 2 | 8 | 8 | 0.06 | 0.5 | – |
| CNC(=O)CC1NC(=O)c2csc(n2)-c2ccc(-c3nc(C4=NC(C(=O)N5CCCC5C(=O)N5CCN(CCN6CCOCC6)CC5)CO4)cs3)nc2-c2csc(n2)-c2csc(n2)C(C(O)c2ccccc2)NC(=O)CNC(=O)c2nc(sc2COC)C(C(C)C)NC(=O)c2nc1sc2C (mixture of isomers) [Compound 19] | 2 | 0.5 | 16 | 0.06 | 0.25 | – |
| CNC(=O)CC1NC(=O)c2csc(n2)-c2ccc(-c3nc(C4=NC(C(=O)N5CCCC5C(=O)N5CCCC5CN(C)CCN(C)C)CO4)cs3)nc2-c2csc(n2)-c2csc(n2)C(C(O)c2ccccc2)NC(=O)CNC(=O)c2nc(sc2COC)C(C(C)C)NC(=O)c2nc1sc2C (mixture of isomers) [Compound 20] | 1 | 4 | 8 | 0.13 | 0.5 | – |
